Two compounds from US9751851B2, “Molecules and compositions that inhibit gram negative bacteria and their uses” (THE TRUSTEES OF PRINCETON UNIVERSITY, priority 2013, dated 2017) can be followed below.

Assay [1] concerns wild-type P. aeruginosa PA14. The experiment in a line: microbe, parasite or virus in culture. The format is cell-based. The settings on record: for Efficacy (%): Table 3, reduction of pyocyanin vs WT P. aeruginosa PA14: 0% = WT level, 100% = background medium; for inhibition of pyocyanin production (in words): wild-type P. aeruginosa PA14, end point assays at 100 μM. The procedure:
(§1) Methods. The oxidized form of pyocyanin imparts a green color to P. aeruginosa cultures, making the production of pyocyanin convenient to monitor by UV/Vis absorbance. Overnight P. aeruginosa cultures were subcultured into 5 mL fresh medium at 1:1000 dilution. Synthetic compounds were assayed at 100 μM for end point assays and at concentrations ranging from 200 nM to 200 μM for titrations following 17 hr of aerobic growth with shaking at 37° C. Cells were separated from culture fluids via centrifugation at 13,000 rpm for 15 min. Culture fluids were passed through 0.22 μm syringe driven filters (Millipore). Cell-free culture fluids were analyzed for pyocyanin using wavelength scans on a Beckman Coulter DU-800 spectrophotometer from 200 nm to 800 nm 695 nm was chosen for graphical representation. Titration data were fit with a variable-slope sigmoidal dose-response curve using GraphPad Prism to determine the IC50 values.
The compounds of the first library were assayed in wild-type (WT) P. aeruginosa PA14. Pyocyanin was used as a read-out for quorum sensing activity based on its absorbance at 695 nm. The efficacy of the compounds at reducing pyocyanin levels was calculated with respect to WT levels of pyocyanin, where WT levels of pyocyanin would lead to a 0% efficacy, and an absorbance equal to the background medium would lead to a 100% efficacy. Agonists that increase pyocyanin production have negative efficacy values.

Assay [2] relates to wild-type P. aeruginosa PA14. The experiment in a line: Microarray gene expression analysis, wild-type strain. The format is cell-based. The settings on record: WT P. aeruginosa PA14, 100 μM. The procedure: Methods. Overnight P. aeruginosa PA14 cultures were back-diluted 1:1000 into 5 mL of fresh LB. 100 μM mBTL, or an equivalent amount of DMSO, was added to cultures which were grown aerobically with shaking at 37° C. for 17 hr. 9 ODs of cells were harvested for each treatment. Lysozyme (1 mg/mL in TE buffer) (Sigma) was added for 10 min at room temperature. Total RNA was prepared using the RNeasy Midi Kit (Qiagen). RNA was treated with RNase-Free DNaseI (Ambion) for 1 hr at 37° C., inactivated using DNaseI Inactivation Reagent Resin (Ambion), and re-purified using the RNeasy Mini Kit. […] The library was purified using the PCR Purification kit (Qiagen) and assessed for Cy3 and Cy5 incorporation using a Nanodrop ND-1000 Spectrophotometer (Nanodrop Technologies). […] Microarrays were scanned using an Agilent G2505C scanner and analyzed using Agilent Feature Extract software version 9.5. Resulting microarray intensity data were submitted to the PUMA Database (http://puma.princeton.edu) for archiving and analyzed using Matlab R2013a.
Overnight P. aeruginosa PA14 cultures were back-diluted 1:1000 into 5 mL of fresh LB. […] The library was purified using the PCR Purification kit (Qiagen) and assessed for Cy3 and Cy5 incorporation using a Nanodrop ND-1000 Spectrophotometer (Nanodrop Technologies). […]

Assay [3] concerns ΔlasRrhlR strain of P. aeruginosa. The experiment in a line: Pyocyanin production in mutant lacking LasR and RhlR. The format is cell-based. The settings on record: treated vs DMSO. The procedure: as §1
The compounds were designed to be AHL analogs that bind and antagonize LasR and/or RhlR. If either receptor were the target, a ΔlasRrhlR strain of P. aeruginosa would not be expected to have a further reduction of pyocyanin when treated with an inhibitor.

In a further assay the target is T1, LasR (Pseudomonas aeruginosa, UniProt P25084).
T1 construct: expressed in transfected cells; host or cells: E. coli BL21-Gold (DE3) carrying pET23b-lasR
T1 sequence (P25084 whole entry): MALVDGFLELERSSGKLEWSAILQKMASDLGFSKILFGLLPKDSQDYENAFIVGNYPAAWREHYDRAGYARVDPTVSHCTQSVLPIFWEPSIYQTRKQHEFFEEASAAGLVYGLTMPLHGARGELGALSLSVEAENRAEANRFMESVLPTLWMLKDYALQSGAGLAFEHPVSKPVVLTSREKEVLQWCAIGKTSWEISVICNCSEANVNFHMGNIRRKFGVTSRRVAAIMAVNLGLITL
The experiment in a line: LasR-GFP assay (rsaL-gfp reporter in recombinant E. coli). It is filed as cell-based, P. aeruginosa. Here is the method: (§2) Methods. The LasR-GFP assays were performed in E. coli strain BL21 DE3 Gold (Agilent) carrying pET23b (Novagen) containing lasR (maintained with 100 μg/mL ampicillin) and carrying plasmid pEVS141 (31) containing the rsaL promoter driving expression of gfp (maintained with […] of kanamycin.) The RhlR-GFP assays were performed in E. coli strain BL21 DE3 Gold (Agilent) carrying pET23b (Novagen) containing rhlR (maintained with 100 μg/mL ampicillin) and carrying plasmid pEVS141 containing the rhlA promoter driving expression of gfp (maintained with 50 μg/mL of kanamycin.) These E. coli strains were grown overnight and subcultured into fresh medium with appropriate antibiotics at a 1:100 dilution and grown shaking for 8 hr at 37° C. for the LasR-GFP strain and 12 hr for the RhlR-GFP construct. 50 nM 3OC12-HSL or 20 μM C4-HSL was added to the LasR-GFP and RhlR-GFP preparations, respectively. Compounds were tested at 1 mM for antagonism and at 100 nM or 20 μM for agonism. These concentrations were chosen for agonism studies to match the concentrations of autoinducers used in the experiments. For antagonism studies, the EC95 concentration was used for each receptor. GFP was measured on an Envision plate reader.
(§3) The LasR-GFP assays were performed in E. coli strain BL21 DE3 Gold (Agilent) carrying pET23b (Novagen) containing lasR (maintained with 100 μg/mL ampicillin) and carrying plasmid pEVS141 (31) containing the rsaL promoter driving expression of gfp (maintained with 50 μg/mL of kanamycin.) The RhlR-GFP assays were performed in E. coli strain BL21 DE3 Gold (Agilent) carrying pET23b (Novagen) containing rhlR (maintained with 100 μg/mL ampicillin) and carrying plasmid pEVS141 (31) containing the rhlA promoter driving expression of gfp (maintained with 50 μg/mL of kanamycin.) These E. coli strains were grown overnight and subcultured into fresh medium with appropriate antibiotics at a 1:100 dilution and grown shaking for 8 hr at 37° C. for the LasR-GFP strain and 12 hr for the RhlR-GFP construct. 50 nM 3OC12-HSL or 20 μM C4-HSL was added to the LasR-GFP and RhlR-GFP preparations, respectively. Compounds were tested at 1 mM for antagonism and at 100 nM or 20 μM for agonism. These concentrations were chosen for agonism studies to match the concentrations of autoinducers used in our experiments. For antagonism studies, we used the EC95 concentration for each receptor. GFP was measured on an Envision plate reader.

For the next assay, the target named is T2, RhlR (Pseudomonas aeruginosa, UniProt P54292).
T2 construct: expressed in transfected cells; host or cells: E. coli BL21-Gold (DE3) carrying pET23b-rhlR
T2 sequence (P54292 whole entry): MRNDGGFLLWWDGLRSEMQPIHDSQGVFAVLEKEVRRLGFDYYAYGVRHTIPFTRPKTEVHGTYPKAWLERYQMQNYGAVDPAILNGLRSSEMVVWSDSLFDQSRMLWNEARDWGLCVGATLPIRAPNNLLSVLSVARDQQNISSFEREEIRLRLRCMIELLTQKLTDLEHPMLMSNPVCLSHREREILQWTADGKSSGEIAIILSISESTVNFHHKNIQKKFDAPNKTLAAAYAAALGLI
The experiment in a line: RhlR-GFP assay (rhlA-gfp reporter in recombinant E. coli). It is filed as cell-based, P. aeruginosa. The procedure: as §2, §3

Assay [4] has as its system A549 human lung cells infected with P. aeruginosa PA14. The experiment in a line: A549 human lung cell infection (propidium iodide uptake). It is filed as cell-based. The settings on record: wild-type and lasR mutant strains; 100 μM compound. Here is the method: Methods. Human A549 cells were grown in CellStar tissue culture flasks. Prior to infection, the A549 cells were treated with trypsin-EDTA (CellGro), split, counted, and aliquotted into 96 well plates at 20,000 mammalian cells/well (cell counts were estimated using Trypan Blue (CellGro) exclusion). Cells were grown for 20 hr at 37° C. in DMEM (Invitrogen). Cells were washed 3× with warm PBS (Gibco). 100 μL of “master mix” was added to each well for each condition. Master mix contained 1 mL pre-warmed-PBS, 5 μL of 2 mg/mL propidium iodide (Bioprobes), 1 μL of a 100 mM inhibitor stock or DMSO, and 10 μL of OD600=2 P. aeruginosa PA14 grown in the presence of mBTL or DMSO. Infections were monitored using an EnVision plate reader every 2 hr with the RFP filter supplied by GE.

Entries after “also recorded” stand apart in the source; their conditions may differ.

In the case of `O=C(COc1cccc(Br)c1)Nc1ccnc(C(F)(F)F)c1` [compound 16, 4-amino-2-trifluoromethylpyridine-C6-3-bromophenoxyhybrid], the “Efficacy (%)” value in assay [1] (listed as Table 3 entry 18) was determined as 99%; in assay [1] (listed as drawing 76), 99 ± 0.3%. For the same compound, the “inhibition of pyocyanin production (in words)” value in assay [1] was “highly effective at blocking pyocyanin production”. The “effect on pyocyanin biosynthetic genes (microarray)” value in assay [2] is “none of the pyocyanin biosynthetic genes are impacted”. In addition, in assay [3], the “pyocyanin levels in strain lacking LasR and RhlR” value is “pyocyanin levels are further reduced”.

On to chlorolactone [CL], for which the “inhibition of pyocyanin production (in words)” value in assay [1] is reported as “Neither CL nor CTL inhibited pyocyanin production; also recorded: no in vivo inhibition of pyocyanin production”. At LasR (100 nM, no autoinducer), the “LasR agonism (in words)” value is “does not agonize either receptor”. Besides, the “inhibition of LasR-directed transcription in E. coli (in words)” value on LasR (tested at 1 mM with 3OC12-HSL) was “more potent inhibitor of both LasR- and RhlR-directed transcription in E. coli than is mBTL; also recorded: inhibits LasR- and RhlR-controlled transcription”. In addition, at RhlR (20 μM, no autoinducer), the “RhlR agonism (in words)” value is “does not agonize either receptor”. The “inhibition of RhlR-directed transcription in E. coli (in words)” value at RhlR (tested at 1 mM with C4-HSL) is “more potent inhibitor of both LasR- and RhlR-directed transcription in E. coli than is mBTL; also recorded: inhibits LasR- and RhlR-controlled transcription”. Besides, the “killing of A549 cells by P. aeruginosa” value in assay [4] was “does not attenuate killing of A549 lung cells”.
